From ChEMBL document CHEMBL5042502, “Discovery of Potent and Selective 2-(Benzylthio)pyrimidine-based DCN1-UBC12 Inhibitors for Anticardiac Fibrotic Effects” (J Med Chem, 2022)
Active and inactive are the calls of the source. The calls are words filed in the database; no cut-off is given here.

Target: T1, DCN1-like protein 1 (Homo sapiens, UniProt Q96GG9)
Experiment: Inhibition of GST-tagged DCN1 (unknown origin) using AcUBE2M1-21 incubated for 30 mins by HTRF assay
Conditions: not given
Target sequence in this assay (Q96GG9 whole entry): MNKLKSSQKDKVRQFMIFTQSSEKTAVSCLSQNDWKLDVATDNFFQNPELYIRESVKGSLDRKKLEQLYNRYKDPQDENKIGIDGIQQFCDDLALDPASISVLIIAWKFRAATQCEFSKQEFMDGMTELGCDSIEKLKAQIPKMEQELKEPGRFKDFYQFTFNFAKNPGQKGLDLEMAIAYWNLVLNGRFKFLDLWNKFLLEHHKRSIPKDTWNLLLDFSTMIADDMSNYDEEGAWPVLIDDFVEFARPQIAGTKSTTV

Compound	IC50
COc1cc(-c2nc(SCc3ccc4ccccc4c3)nc(Sc3nnnn3CCN(C)C)c2C#N)cc(OC)c1OC	2.25 nM
COc1cc(-c2nc(SCc3ccc(C(C)(C)C)cc3)nc(Sc3nccs3)c2C#N)cc(OC)c1OC	11.5 nM
Cc1ccc(CSc2nc(Sc3nccs3)c(C#N)c(-c3cccs3)n2)cc1	> 10000 nM
COc1cc(-c2nc(SCc3ccccc3)nc(Nc3ccc(Cl)cc3)c2C#N)cc(OC)c1OC	> 10000 nM
COc1cc(-c2nc(SCc3ccc(C)cc3)nc(Sc3nnnn3C)c2C#N)cc(OC)c1OC	2.86 nM
COc1cc(-c2nc(SCc3cccc(C(F)(F)F)c3)nc(Sc3nccs3)c2C#N)cc(OC)c1OC	29.3 nM
Cc1ccc(CSc2nc(Sc3nccs3)c(C#N)c(-c3ccc(Oc4ccccc4)cc3)n2)cc1	1020 nM
COc1cc(-c2nc(SCc3ccccc3)nc(Sc3nnnn3C)c2C#N)cc(OC)c1OC	36.4 nM
COc1cc(-c2nc(SCc3ccccc3)nc(Sc3nccs3)c2C#N)cc(OC)c1OC	28.2 nM
COc1cc(-c2nc(SCC(=O)Nc3ccccc3)nc(Sc3nccs3)c2C#N)cc(OC)c1OC	8010 nM
COc1cc(-c2nc(SCc3ccccc3C)nc(Sc3nccs3)c2C#N)cc(OC)c1OC	890 nM
C#CCSc1nc(Sc2nnnn2C)c(C#N)c(-c2cc(OC)c(OC)c(OC)c2)n1	0.25 nM
COc1ccc(CNc2nc(Sc3nnnn3C)cc(-c3cc(OC)c(OC)c(OC)c3)n2)cc1	4130 nM
Cc1ccc(CSc2nc(Sc3nccs3)c(C#N)c(-c3c[nH]c4ccccc34)n2)cc1	> 10000 nM
Cc1ccc(CSc2nc(Sc3nccs3)c(C#N)c(-c3ccccc3C)n2)cc1	463 nM
COc1cc(-c2nc(SCc3ccc(C)cc3)nc(Sc3nnnn3CCN(C)C)c2C#N)cc(OC)c1OC	9.37 nM
COc1cc(-c2nc(SCc3ccc(Cl)cc3)nc(Sc3nccs3)c2C#N)cc(OC)c1OC	24.7 nM
COc1cc(-c2nc(SCc3cccc(C)c3)nc(Sc3nnnn3CCN(C)C)c2C#N)cc(OC)c1OC	12.4 nM
COc1ccc(CSc2nc(Sc3nnnn3CCN(C)C)c(C#N)c(-c3cc(OC)c(OC)c(OC)c3)n2)cc1	13.4 nM
C#CCSc1nc(Sc2nccs2)c(C#N)c(-c2ccc(C)cc2)n1	18.3 nM

Compound	IC50
COC(=O)c1ccc(CSc2nc(Sc3nccs3)c(C#N)c(-c3cc(OC)c(OC)c(OC)c3)n2)cc1	5.36 nM
COc1cc(-c2nc(SCc3ccccc3)nc(Sc3nc(C)cs3)c2C#N)cc(OC)c1OC	41.1 nM
COc1cc(-c2nc(SCc3ccncc3)nc(Sc3nccs3)c2C#N)cc(OC)c1OC	653 nM
COc1cc(-c2nc(SCC3CCCCC3)nc(Sc3nccs3)c2C#N)cc(OC)c1OC	611 nM
Cc1ccc(CSc2nc(Sc3nccs3)c(C#N)c(-c3ccc(Br)cc3)n2)cc1	27.9 nM
Cc1ccc(CSc2nc(Sc3nccs3)c(C#N)c(-c3cccc(C)c3)n2)cc1	1690 nM
COc1cc(-c2cc(Sc3nnnn3C)nc(SCc3ccc(Cl)cc3)n2)cc(OC)c1OC	9620 nM
COc1ccc(CSc2nc(Sc3nccs3)c(C#N)c(-c3cc(OC)c(OC)c(OC)c3)n2)cc1	2570 nM
COc1cc(-c2nc(SCc3ccc4ccccc4c3)nc(Sc3nnnn3C)c2C#N)cc(OC)c1OC	6.15 nM
COc1cc(-c2nc(SCc3cccc(C)c3)nc(Sc3nnnn3C)c2C#N)cc(OC)c1OC	11.1 nM
COc1cc(-c2nc(SCc3ccc(C(F)(F)F)cc3)nc(Sc3nnnn3CCN(C)C)c2C#N)cc(OC)c1OC	60.5 nM
COc1cc(-c2nc(SCc3c(C)noc3C)nc(Sc3nccs3)c2C#N)cc(OC)c1OC	412 nM
COc1cc(-c2nc(SCc3ccc(C(C)(C)C)cc3)nc(Sc3nnnn3C)c2C#N)cc(OC)c1OC	1220 nM
COc1cc(-c2nc(SCc3ccccc3)nc(Nc3ccc(O)c(Cl)c3)c2C#N)cc(OC)c1OC	> 10000 nM
COc1ccc(Nc2nc(SCc3ccccc3)nc(-c3cc(OC)c(OC)c(OC)c3)c2C#N)cc1	> 10000 nM
COc1cc(-c2nc(SCc3ccccc3)nc(NCc3nccs3)c2C#N)cc(OC)c1OC	> 10000 nM
COc1cc(-c2nc(SCc3ccccc3)nc(Nc3cccc(Cl)c3)c2C#N)cc(OC)c1OC	2390 nM
COc1cc(-c2nc(SCc3ccccc3)nc(Sc3nnnn3CCN(C)C)c2C#N)cc(OC)c1OC	28.1 nM
COc1cc(-c2nc(SCCc3ccccc3)nc(Sc3nccs3)c2C#N)cc(OC)c1OC	2570 nM
COc1cc(-c2nc(SCc3ccc(Cl)cc3)nc(Sc3nnnn3CCN(C)C)c2C#N)cc(OC)c1OC	25.3 nM

Compound	IC50
Cc1ccc(CSc2nc(Sc3nccs3)c(C#N)c(-c3ccccc3)n2)cc1	2790 nM
Cc1ccc(CSc2nc(Sc3nccs3)c(C#N)c(-c3ccc(Cl)cc3)n2)cc1	65.9 nM
COc1cc(-c2nc(SCC(=O)NC(=O)Nc3ccccc3)nc(Sc3nccs3)c2C#N)cc(OC)c1OC	6180 nM
COc1cc(-c2nc(SCc3ccc4ccccc4c3)nc(Sc3nccs3)c2C#N)cc(OC)c1OC	36.4 nM
COc1cc(-c2nc(SCc3ccoc3C(F)(F)F)nc(Sc3nccs3)c2C#N)cc(OC)c1OC	450 nM
COc1cc(-c2nc(SCc3ccc(C(F)(F)F)cc3)nc(Sc3nccs3)c2C#N)cc(OC)c1OC	100 nM
COc1cc(-c2nc(SCc3ccccc3)nc(Sc3nc(C)c(C)s3)c2C#N)cc(OC)c1OC	> 10000 nM
COc1cc(-c2nc(SCc3cccc(C(F)(F)F)c3)nc(Sc3nnnn3C)c2C#N)cc(OC)c1OC	25.8 nM
COc1ccc(CSc2nc(Sc3nnnn3C)c(C#N)c(-c3cc(OC)c(OC)c(OC)c3)n2)cc1	31.2 nM
COc1ccc(-c2nc(SCc3ccc(C)cc3)nc(Sc3nccs3)c2C#N)cc1OC	17.1 nM
COc1cc(-c2nc(SCc3ccc(C(F)(F)F)cc3)nc(Sc3nnnn3C)c2C#N)cc(OC)c1OC	29.1 nM
COc1cc(-c2nc(SCc3cccc(C)c3)nc(Sc3nccs3)c2C#N)cc(OC)c1OC	5.48 nM
C=CCSc1nc(Sc2nccs2)c(C#N)c(-c2cc(OC)c(OC)c(OC)c2)n1	36.9 nM
COc1cc(-c2nc(SCc3ccc(C)cc3)nc(Sc3nccs3)c2C#N)cc(OC)c1OC	42.2 nM
COc1cc(-c2nc(SCc3nc4ccccc4[nH]3)nc(Sc3nccs3)c2C#N)cc(OC)c1OC	814 nM
Cc1ccc(CSc2nc(Sc3nccs3)c(C#N)c(-c3ccc(C)cc3)n2)cc1	20.9 nM
COc1ccc(-c2nc(SCc3ccc(C)cc3)nc(Sc3nccs3)c2C#N)cc1	21.2 nM
COc1cc(-c2nc(SCc3ccccc3)nc(NC(C)(C)N3CCOCC3)c2C#N)cc(OC)c1OC	> 10000 nM
CCCSc1nc(Sc2nccs2)c(C#N)c(-c2cc(OC)c(OC)c(OC)c2)n1	258 nM
COc1cc(-c2nc(SCc3cccc(C(F)(F)F)c3)nc(Sc3nnnn3CCN(C)C)c2C#N)cc(OC)c1OC	12.2 nM

Target: DCN1-like protein 2 (Homo sapiens, UniProt Q6PH85)
Sequence (Q6PH85 whole entry): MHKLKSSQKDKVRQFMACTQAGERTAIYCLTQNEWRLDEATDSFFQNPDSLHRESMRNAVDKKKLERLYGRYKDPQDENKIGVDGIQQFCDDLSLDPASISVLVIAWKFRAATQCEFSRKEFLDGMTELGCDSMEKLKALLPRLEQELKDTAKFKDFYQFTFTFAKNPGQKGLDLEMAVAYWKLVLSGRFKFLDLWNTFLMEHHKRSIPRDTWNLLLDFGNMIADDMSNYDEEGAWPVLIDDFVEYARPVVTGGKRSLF
Experiment: Binding affinity to DCN2 (unknown origin) assessed as inhibitory constant
Conditions: not given

Compound	Ki
C#CCSc1nc(Sc2nccs2)c(C#N)c(-c2ccc(C)cc2)n1	66200 nM

Target: T2, DCN1-like protein 3 (Homo sapiens, UniProt Q8IWE4)
T2 sequence (Q8IWE4 whole entry): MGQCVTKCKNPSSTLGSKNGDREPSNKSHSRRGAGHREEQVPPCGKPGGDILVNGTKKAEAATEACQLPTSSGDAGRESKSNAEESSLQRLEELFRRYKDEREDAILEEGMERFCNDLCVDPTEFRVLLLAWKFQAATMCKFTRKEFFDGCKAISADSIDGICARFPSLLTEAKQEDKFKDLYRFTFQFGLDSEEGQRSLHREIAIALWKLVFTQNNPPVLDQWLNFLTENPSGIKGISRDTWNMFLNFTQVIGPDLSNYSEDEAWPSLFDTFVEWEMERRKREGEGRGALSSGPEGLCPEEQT
Experiment: Binding affinity to DCN3 (unknown origin) assessed as inhibitory constant
Conditions: not given

Compound	Ki
C#CCSc1nc(Sc2nccs2)c(C#N)c(-c2ccc(C)cc2)n1	592000 nM

Target: T3, DCN1-like protein 5 (Homo sapiens, UniProt Q9BTE7)
T3 sequence (Q9BTE7 whole entry): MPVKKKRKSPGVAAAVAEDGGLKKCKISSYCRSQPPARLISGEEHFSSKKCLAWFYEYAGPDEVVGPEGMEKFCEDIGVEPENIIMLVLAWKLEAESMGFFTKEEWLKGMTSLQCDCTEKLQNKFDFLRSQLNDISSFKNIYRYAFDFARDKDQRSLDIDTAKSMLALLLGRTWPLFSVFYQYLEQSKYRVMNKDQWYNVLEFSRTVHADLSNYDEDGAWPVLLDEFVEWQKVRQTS
Experiment: Binding affinity to DCN5 (unknown origin) assessed as inhibitory constant
Conditions: not given

Compound	Ki
C#CCSc1nc(Sc2nccs2)c(C#N)c(-c2ccc(C)cc2)n1	2140 nM

Test system: Cardiac fibroblast
Experiment: Inhibition of DCN1 in Sprague-Dawley rat cardiac fibroblast assessed as suppression in DCN1-UBC12 interaction by measuring reduction in UBC12 level at 10 uM incubated for 5 hrs co-incubated with DCN1 antibody by co-immunoprecipitation pull down assay
Format: cell-based
Conditions: not given

Compound	inhibition
C#CCSc1nc(Sc2nccs2)c(C#N)c(-c2ccc(C)cc2)n1	Dose-Dependent Effect

Test system: not listed separately
Experiment: Cytotoxicity against Sprague-Dawley rat cardiac fibroblast by MTT assay
Format: toxicity, cell-based, Fibroblast of cardiac tissue
Conditions: cardiac fibroblasts

Compound	IC50
COc1cc(-c2nc(SCc3ccc4ccccc4c3)nc(Sc3nnnn3CCN(C)C)c2C#N)cc(OC)c1OC	25800 nM
COc1cc(-c2nc(SCc3ccc(C)cc3)nc(Sc3nnnn3C)c2C#N)cc(OC)c1OC	9970 nM
COc1cc(-c2nc(SCc3ccc(C)cc3)nc(Sc3nnnn3CCN(C)C)c2C#N)cc(OC)c1OC	26000 nM
C#CCSc1nc(Sc2nccs2)c(C#N)c(-c2ccc(C)cc2)n1	12600 nM
COc1cc(-c2nc(SCc3ccc4ccccc4c3)nc(Sc3nnnn3C)c2C#N)cc(OC)c1OC	18900 nM
COc1cc(-c2nc(SCc3ccc4ccccc4c3)nc(Sc3nccs3)c2C#N)cc(OC)c1OC	22900 nM
COc1cc(-c2nc(SCc3cccc(C)c3)nc(Sc3nccs3)c2C#N)cc(OC)c1OC	15600 nM
COc1cc(-c2nc(SCc3ccc(C)cc3)nc(Sc3nccs3)c2C#N)cc(OC)c1OC	6150 nM

Test system: Fibroblast of cardiac tissue
Experiment: Antifibrotic effect in SD rat cardiac fibroblast assessed as reduction in Ang II-induced collagen I upregulation preincubated for 2 hrs followed by Ang II-stimulation and further incubated for 24 hrs by western blot analysis (reference value: 71 %)
Format: functional
Conditions: time 26.0 hrs

Compound	inhibition
COc1cc(-c2cc(Sc3nnnn3C)nc(SCc3ccc(Cl)cc3)n2)cc(OC)c1OC	inactive

Test system: Fibroblast of cardiac tissue
Experiment: Antifibrotic effect in SD rat cardiac fibroblast assessed as reduction in Ang II-induced activation of Nrf2 signaling pathway preincubated for 2 hrs followed by Ang II-stimulation and further incubated for 24 hrs by western blot analysis (reference value: 43 %)
Format: functional
Conditions: time 26.0 hrs

Compound	inhibition
COc1cc(-c2cc(Sc3nnnn3C)nc(SCc3ccc(Cl)cc3)n2)cc(OC)c1OC	inactive

Target: T1, DCN1-like protein 1
Conditions: not given
Target sequence in this assay (Q96GG9 whole entry, looked up): as the sequence (Q96GG9 whole entry) above

Compound	-TdeltaS
C#CCSc1nc(Sc2nnnn2C)c(C#N)c(-c2cc(OC)c(OC)c(OC)c2)n1	10.8 kcal/mol
COc1cc(-c2cc(Sc3nnnn3C)nc(SCc3ccc(Cl)cc3)n2)cc(OC)c1OC	10.6 kcal/mol

Target: T1, DCN1-like protein 1
Conditions: not given
Remark: another data set of the same source
Target sequence in this assay (Q96GG9 whole entry, looked up): as the sequence (Q96GG9 whole entry) above

Compound	deltaG
C#CCSc1nc(Sc2nnnn2C)c(C#N)c(-c2cc(OC)c(OC)c(OC)c2)n1	-10.3 kcal/mol
COc1cc(-c2cc(Sc3nnnn3C)nc(SCc3ccc(Cl)cc3)n2)cc(OC)c1OC	-7.12 kcal/mol
